{"source": "patent US5079341", "conditions": "amide bond, 33-membered ring, BOP/DMAP", "note": "Like-named read-outs stand apart in the source and are kept apart here."}
{"smiles": "CCCC[C@@H]1NC(=O)[C@H]([C@@H](C)O)N(C)C(=O)[C@H](C(C)C)N(C)C(=O)[C@H](CC(C)C)N(C)C(=O)[C@H](CC(C)C)N(C)C(=O)[C@@H](C)NC(=O)[C@H](C)NC(=O)[C@H](CC(C)C)N(C)C(=O)[C@H](C(C)C)NC(=O)[C@H](CC(C)C)N(C)C(=O)CN(C)C1=O", "values": [{"measurement": "ring closure, isolated yield", "setting": "from H-MeThr-Nle-Sar-MeLeu-Val-MeLeu-Ala-dAla-MeLeu-MeLeu-MeVal-OH, CH2Cl2, 0.325 mM", "value": 14, "unit": "%"}]}
{"smiles": "CC[C@@H]1NC(=O)[C@H](CO)N(C)C(=O)[C@H](C(C)C)N(C)C(=O)[C@H](CC(C)C)N(C)C(=O)[C@H](CC(C)C)N(C)C(=O)[C@@H](C)NC(=O)[C@H](C)NC(=O)[C@H](CC(C)C)N(C)C(=O)[C@H](C(C)C)NC(=O)[C@H](CC(C)C)N(C)C(=O)CN(C)C1=O", "values": [{"measurement": "ring closure, isolated yield", "setting": "from H-MeSer-Abu-Sar-MeLeu-Val-MeLeu-Ala-dAla-MeLeu-MeLeu-MeVal-OH, CH2Cl2, 0.176 mM", "value": 15, "unit": "%"}]}
{"smiles": "CCCC[C@@H]1NC(=O)[C@H](CO)N(C)C(=O)[C@H](C(C)C)N(C)C(=O)[C@H](CC(C)C)N(C)C(=O)[C@H](CC(C)C)N(C)C(=O)[C@@H](C)NC(=O)[C@H](C)NC(=O)[C@H](CC(C)C)N(C)C(=O)[C@H](C(C)C)NC(=O)[C@H](CC(C)C)N(C)C(=O)CN(C)C1=O", "values": [{"measurement": "ring closure, isolated yield", "setting": "from H-MeSer-Nle-Sar-MeLeu-Val-MeLeu-Ala-dAla-MeLeu-MeLeu-MeVal-OH, THF/CH2Cl2 1:1, 0.433 mM", "value": 16, "unit": "%"}]}
{"smiles": "CCCC[C@@H]1NC(=O)[C@@H]2C[C@@H](O)CN2C(=O)[C@H](C(C)C)N(C)C(=O)[C@H](CC(C)C)N(C)C(=O)[C@H](CC(C)C)N(C)C(=O)[C@@H](C)NC(=O)[C@H](C)NC(=O)[C@H](CC(C)C)N(C)C(=O)[C@H](C(C)C)NC(=O)[C@H](CC(C)C)N(C)C(=O)CN(C)C1=O", "values": [{"measurement": "ring closure, isolated yield", "setting": "from H-Hyp-Nle-Sar-MeLeu-Val-MeLeu-Ala-dAla-MeLeu-MeLeu-MeVal-OH, CH2Cl2, 0.4 mM", "value": 26, "unit": "%"}]}
{"smiles": "CC[C@@H]1NC(=O)[C@@H]2C[C@@H](O)CN2C(=O)[C@H](C(C)C)N(C)C(=O)[C@H](CC(C)C)N(C)C(=O)[C@H](CC(C)C)N(C)C(=O)[C@@H](C)NC(=O)[C@H](C)NC(=O)[C@H](CC(C)C)N(C)C(=O)[C@H](C(C)C)NC(=O)[C@H](CC(C)C)N(C)C(=O)CN(C)C1=O", "values": [{"measurement": "ring closure, isolated yield", "setting": "from H-Hyp-Abu-Sar-MeLeu-Val-MeLeu-Ala-dAla-MeLeu-MeLeu-MeVal-OH, CH2Cl2, 0.35 mM", "value": 30, "unit": "%"}]}
{"smiles": "CCC[C@@H]1NC(=O)[C@H](CO)N(C)C(=O)[C@H](C(C)C)N(C)C(=O)[C@H](CC(C)C)N(C)C(=O)[C@H](CC(C)C)N(C)C(=O)[C@@H](C)NC(=O)[C@H](C)NC(=O)[C@H](CC(C)C)N(C)C(=O)[C@H](C(C)C)NC(=O)[C@H](CC(C)C)N(C)C(=O)CN(C)C1=O", "values": [{"measurement": "ring closure, isolated yield", "setting": "from H-MeSer-Nva-Sar-MeLeu-Val-MeLeu-Ala-dAla-MeLeu-MeLeu-MeVal-OH, CH2Cl2/THF 1:1, 3.9 mM", "value": 20, "unit": "%"}]}
{"smiles": "CC[C@@H]1NC(=O)[C@H](CCNC(=O)OCC2c3ccccc3-c3ccccc32)NC(=O)[C@H](C(C)C)N(C)C(=O)[C@H](CC(C)C)N(C)C(=O)[C@H](CC(C)C)N(C)C(=O)[C@@H](C)NC(=O)[C@H](C)NC(=O)[C@H](CC(C)C)N(C)C(=O)[C@H](C(C)C)NC(=O)[C@H](CC(C)C)N(C)C(=O)CN(C)C1=O", "values": [{"measurement": "ring closure, isolated yield", "setting": "from H-Dab(Fmoc)-Abu-Sar-MeLeu-Val-MeLeu-Ala-dAla-MeLeu-MeLeu-MeVal-OH, CH2Cl2, 0.165 mM", "value": 37, "unit": "%"}]}
